Key:
Test in all cases: Kinase inhibitor library screening, PrestoBlue cell viability, 1 or 10 μM, 72 h
A375 cells (parental) = settings: for cell viability, A375 Parental, 1μΜ / cell viability, A375 Parental, 10μΜ: 72 h, in %; for viability at 1 µM / viability at 10 µM: Homo sapiens, A-375, 72 h; for viability at 1 µM: read-out: cell viability, A375 Parental, 1μΜ; for viability at 10 µM: read-out: cell viability, A375 Parental, 10μΜ
[1] = tested on: 501Mel-XP cells (Vemurafenib-resistant); settings: 72 h; for cell viability, 501Mel XP, 1μΜ / cell viability, 501Mel XP, 10μΜ: in %; for viability at 1 µM / viability at 10 µM: Homo sapiens; for viability at 1 µM: read-out: cell viability, 501Mel XP, 1μΜ; for viability at 10 µM: read-out: cell viability, 501Mel XP, 10μΜ
[2] = tested on: A375-GP cells (Dabrafenib-resistant); settings: for cell viability, A375 GP, 1μΜ / cell viability, A375 GP, 10μΜ: 72 h, in %; for viability at 1 µM / viability at 10 µM: Homo sapiens, A-375, 72 h; for viability at 1 µM: read-out: cell viability, A375 GP, 1μΜ; for viability at 10 µM: read-out: cell viability, A375 GP, 10μΜ
[3] = tested on: IGR37-XP cells (Vemurafenib-resistant); settings: for cell viability, IGR37 XP, 10μΜ / cell viability, IGR37 XP, 1μΜ: 72 h; for cell viability, IGR37 XP, 1μΜ: in %; for viability at 1 µM / viability at 10 µM: Homo sapiens, IGR-37, 72 h; for viability at 1 µM: read-out: cell viability, IGR37 XP, 1μΜ; for viability at 10 µM: read-out: cell viability, IGR37 XP, 10μΜ
[4] = tested on: A375-XP cells (Vemurafenib-resistant); settings: for cell viability, A375 XP, 1μΜ / cell viability, A375 XP, 10μΜ: 72 h, in %; for viability at 1 µM / viability at 10 µM: Homo sapiens, A-375, 72 h; for viability at 1 µM: read-out: cell viability, A375 XP, 1μΜ; for viability at 10 µM: read-out: cell viability, A375 XP, 10μΜ
IGR37 cells (parental) = settings: for cell viability, IGR37 Parental, 10μΜ / cell viability, IGR37 Parental, 1μΜ: 72 h, in %; for viability at 1 µM / viability at 10 µM: Homo sapiens, IGR-37, 72 h; for viability at 1 µM: read-out: cell viability, IGR37 Parental, 1μΜ; for viability at 10 µM: read-out: cell viability, IGR37 Parental, 10μΜ
[5] = tested on: 501Mel-GP cells (Dabrafenib-resistant); settings: 72 h; for cell viability, 501Mel GP, 1μΜ / cell viability, 501Mel GP, 10μΜ: in %; for viability at 1 µM / viability at 10 µM: Homo sapiens; for viability at 1 µM: read-out: cell viability, 501Mel GP, 1μΜ; for viability at 10 µM: read-out: cell viability, 501Mel GP, 10μΜ
501Mel cells (parental) = settings: 72 h; for cell viability, 501Mel Parental, 1μΜ / cell viability, 501Mel Parental, 10μΜ: in %; for viability at 1 µM / viability at 10 µM: Homo sapiens; for viability at 1 µM: read-out: cell viability, 501Mel Parental, 1μΜ; for viability at 10 µM: read-out: cell viability, 501Mel Parental, 10μΜ
Method in brief: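 PrestoBlue viability readout after 72 h exposure to each inhibitor at 1 or 10 μM, reported relative to untreated cells as % viability. Lines tested: sensitive parental plus derivatives resistant to Vemurafenib (XP) or Dabrafenib (GP), each run at least in duplicate.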

[6] = tested on: IGR37-GP cells (Dabrafenib-resistant); settings: for cell viability, IGR37 GP, 10μΜ / cell viability, IGR37 GP, 1μΜ: 72 h; for cell viability, IGR37 GP, 1μΜ: in %; for viability at 1 µM / viability at 10 µM: Homo sapiens, IGR-37, 72 h; for viability at 1 µM: read-out: cell viability, IGR37 GP, 1μΜ; for viability at 10 µM: read-out: cell viability, IGR37 GP, 10μΜ

Row | SMILES | cell viability, A375 Parental, 1μΜ (A375 cells (parental)) | cell viability, 501Mel XP, 1μΜ [1] | cell viability, 501Mel XP, 10μΜ [1] | cell viability, A375 GP, 1μΜ [2] | cell viability, A375 GP, 10μΜ [2] | cell viability, IGR37 XP, 10μΜ [3] | cell viability, A375 XP, 1μΜ [4] | cell viability, A375 XP, 10μΜ [4] | cell viability, IGR37 Parental, 10μΜ (IGR37 cells (parental)) | cell viability, 501Mel GP, 1μΜ [5] | cell viability, 501Mel GP, 10μΜ [5] | cell viability, 501Mel Parental, 1μΜ (501Mel cells (parental)) | cell viability, 501Mel Parental, 10μΜ (501Mel cells (parental)) | cell viability, IGR37 GP, 10μΜ [6] | cell viability, IGR37 GP, 1μΜ [6] | cell viability, A375 Parental, 10μΜ (A375 cells (parental)) | cell viability, IGR37 XP, 1μΜ [3] | cell viability, IGR37 Parental, 1μΜ (IGR37 cells (parental)) | viability at 1 µM (A375 cells (parental)) | viability at 10 µM (A375 cells (parental)) | also measured
1 | COc1cccc(-c2cc(=O)c3ccccc3o2)c1N [PD98059] | 98.4 | 97.3 | 80.0 | 95.5 | 83.6 | 61.9% | 102.6 | 94.1 | 81.4 | 104.1 | 84.1 | 98.8 | 79.8 | 88.7% | 94.1 |  |  |  |  |  | 
2 | COc1cc2ncnc(Nc3cccc(Br)c3)c2cc1OC.Cl [PD153035 HCl] | 108.8 | 99.4 | 16.6 | 106.0 | 105.2 | 30.6% | 108.7 | 97.5 | 42.8 | 110.1 | 28.5 | 107.0 | 38.0 | 73.7% |  | 108.3 | 82.2 | 115.8 |  |  | 
3 | CCN(CC)CCCCNc1ncc2cc(-c3cc(OC)cc(OC)c3)c(NC(=O)NC(C)(C)C)nc2n1 [PD173074] |  |  |  |  |  |  |  |  |  |  |  |  |  |  |  |  |  |  | 105% | 70.1% | viability at 1 µM [1]: 97.2%; viability at 10 µM [1]: -0.025%; viability at 1 µM [2]: 98.2%; viability at 10 µM [2]: 62.8%; viability at 1 µM [3]: 92.2%; viability at 10 µM [3]: 14.7%; viability at 1 µM [4]: 100%; viability at 10 µM [4]: 72%; viability at 1 µM (IGR37 cells (parental)): 99.8%; viability at 10 µM (IGR37 cells (parental)): 75.6%; viability at 1 µM [5]: 106%; viability at 10 µM [5]: 13.2%; viability at 1 µM (501Mel cells (parental)): 103%; viability at 10 µM (501Mel cells (parental)): 11.8%; viability at 1 µM [6]: 91.4%; viability at 10 µM [6]: 50%
4 | O=C(NOCC(O)CO)c1cc(Br)c(F)c(F)c1Nc1ccc(I)cc1F (centres unmarked) [PD318088] | 19.2 | 84.8 | 57.7 | 31.6 | 15.6 | 22.8% | 36.7 | 11.2 | 36.8 | 99.4 | 79.2 | 54.5 | 54.4 | 66.4% | 76.0 | 16.4 | 63.3 | 37.8 |  |  | 
5 | O=C(NOC[C@H](O)CO)c1ccc(F)c(F)c1Nc1ccc(I)cc1F [PD0325901] |  |  |  |  |  |  |  |  |  |  |  |  |  |  |  |  |  |  | 17.6% | 17.5% | viability at 1 µM [1]: 72%; viability at 10 µM [1]: 54.1%; viability at 1 µM [2]: 12.6%; viability at 10 µM [2]: 13.1%; viability at 1 µM [3]: 58.6%; viability at 10 µM [3]: 15.7%; viability at 1 µM [4]: 11.5%; viability at 10 µM [4]: 11.4%; viability at 1 µM (IGR37 cells (parental)): 34.5%; viability at 10 µM (IGR37 cells (parental)): 35.2%; viability at 1 µM [5]: 87.8%; viability at 10 µM [5]: 66.1%; viability at 1 µM (501Mel cells (parental)): 56.4%; viability at 10 µM (501Mel cells (parental)): 64.3%; viability at 1 µM [6]: 76.5%; viability at 10 µM [6]: 46.2%

Reference: paper PMC6364417, “Kinase inhibitor library screening identifies synergistic drug combinations effective in sensitive and resistant melanoma cells” (Journal of Experimental & Clinical Cancer Research : CR, 2019)
